{"source": "patent US11033559B2", "about": "“Leukocyte infiltration promoting agent and antitumor immunostimulatory agent” (OSAKA UNIVERSITY, priority 2015, dated 2021)", "system": "LLC tumor in mice", "assay": "Drug (doxorubicin) delivery from tumor blood vessels to tumor tissues after LPA administration", "format": "in vivo", "details": "LLC-bearing mice, LPA 3 mg/kg i.p., doxorubicin 1.5 mg/kg via tail vein 24 hours later, tumors harvested at 20 minutes", "from_the_text": "As is commonly known, low blood flow and vascular hyperpermeability are the hallmarks of tumors. These cause an increase in tumor interstitial fluid pressure, leading to no difference in osmotic pressure between the tumor parenchyma and the blood vessels. This condition is a great obstacle to substance penetration from the vascular lumen to tumor tissues. Based on the above results showing that LPA administration induces a dense network formation of tumor blood vessels with a smooth luminal surface, it was hypothesized that LPA administration would improve drug penetration from tumor blood vessels. To examine drug penetration into tumors after LPA administration, the following experiments were conducted.\nLLC cells were subcutaneously inoculated into C57BL/6 NCrSlc mice aged 8 weeks (females, SLC, Inc.) in the same manner as in Reference Example 1. An LPA solution for administration was prepared in the same manner as in Reference Example 1. On day 11 post-inoculation, LLC-bearing mice that had developed a tumor with a volume of 100 to 120 mm^3 were selected. The mice were divided into two groups: a control group and an LPA group (n=3 per group). After grouping, LPA (3 mg/kg/100 μL) or PBS (100 μL) was intraperitoneally administered to the mice. […] Doxorubicin is a fluorescent anticancer drug that can be detected at an excitation wavelength of 480 nm and a measurement wavelength of 575 nm. […]"}
{"substance": "lysophosphatidic acid [LPA]", "values": [{"measurement": "penetration of doxorubicin into tumors", "result": "delivery of doxorubicin from tumor blood vessels to the deep part of the tumor was observed"}]}
